# Results taken from patent US9458145B2, “Benzimidazole derivatives as bromodomain inhibitors” (Gilead Sciences, Inc., priority 2013, dated 2016).
# pIC50: −log10 of the molar value.
# Test system: MT-4 cells
# Experiment: MT-4 proliferation assay
# Assay type: cell-based, human
# Conditions: Homo sapiens, MT4, 120 h, read-out: MT4 Assay, (IC50, nM)
# Description: MT-4 Proliferation Assay:
# Compounds were tested in a standardized high-throughput 384-well assay format. Each compound was serially diluted 3-fold in 100% DMSO in polypropylene 384-well plates using a Biomek FX Workstation, and 0.4 μL compound added to an assay plate containing 40 μL RPMI media. Compounds were arranged in a horizontal pattern, with 10 concentrations per compound, and 8 compounds added per plate. Due to low DMSO tolerability, the final DMSO concentration never exceeded 0.5% (v/v). Each assay plate contained 10 μM Puromycin and 0.5% DMSO in RPMI-1640 as positive and negative controls respectively. MT-4 cells (HTLV-1 transformed, human T lymphoblastoid cells, NIH Aids Reagent program) were added in volumes of 35 μL per well and 2,000 cells per well using a Biotek uFlow Workstation (Biotek, Winooski, Vt.), and the plates subsequently incubated for 5 days at 37° C. in an incubator set at 5% CO2 and 90% humidity.
# After 5 days, 22 μL Cell Titer Glo (Promega) was added to the assay plates with a Biotek uFlow Workstation. Plates were subsequently placed on a Perkin Elmer Envision Plate Reader for 5 minutes before the luminescence signal was read.
row,Structure (SMILES),IC50 [nM]
1,"Cc1noc(C)c1-c1cc(S(=O)(=O)NC2CCCC2)c2nc([S+](C)[O-])[nH]c2c1 (stereo not drawn) [Compound 1020-5, N-Cyclopentyl-6-(3,5-dimethylisoxazol-4-yl)-2-(methylsulfinyl)-1H-benzo[d]imidazole-4-sulfonamide]",329

# Same assay, conditions: Homo sapiens, MT4, 120 h; Table 1; 5 days, Cell Titer Glo; method text calls it EC50; read-out: MT4 Assay, (IC50)
row,Structure (SMILES),pIC50
1,"Cc1ccc2ncccc2c1-c1cc(-c2c(C)noc2C)cc2[nH]c(-c3cnn(C)c3)nc12 [Compound 1020-88, 3,5-Dimethyl-4-(2-(1-methyl-1H-pyrazol-4-yl)-4-(6-methylquinolin-5-yl)-1H-benzo[d]imidazol-6-yl)isoxazole]",7.34
2,"Cc1ccc2ncccc2c1-c1cc(-c2c(C)noc2C)cc2[nH]c(C(O)CCO)nc12 (stereo not drawn) [Compound 1020-89, 1-(6-(3,5-dimethylisoxazol-4-yl)-4-(6-methylquinolin-5-yl)-1H-benzo[d]imidazol-2-yl)propane-1,3-diol]",6.98
3,"Cc1noc(C)c1-c1cc(C(O)C2CCCC2)c2nc(C3CC3)[nH]c2c1 (stereo not drawn) [Compound 1020-121, Cyclopentyl(2-cyclopropyl-6-(3,5-dimethylisoxazol-4-yl)-1H-benzo[d]imidazol-4-yl)methanol]",7.37
4,"Cc1cnn(C)c1-c1cc(-c2c(C)noc2C)cc2nc(C3CC3)[nH]c12 [Compound 1020-12, 4-(2-Cyclopropyl-7-(1,4-dimethyl-1H-pyrazol-5-yl)-1H-benzo[d]imidazol-5-yl)-3,5-dimethylisoxazole]",7.67
5,"CCC(O)(CC)c1cc(-c2c(C)noc2C)cc2c1nc(C1CC1)n2C [Compound 1020-132, 3-(2-Cyclopropyl-6-(3,5-dimethylisoxazol-4-yl)-1-methyl-1H-benzo[d]imidazol-4-yl)pentan-3-ol]",6.26
6,"CCC1CCC(=O)N1c1cc(-c2c(C)noc2C)cc2[nH]c(C3CC3)nc12 (stereo not drawn) [Compound 1020-137, 1-(2-Cyclopropyl-6-(3,5-dimethylisoxazol-4-yl)-1H-benzo[d]imidazol-4-yl)-5-ethylpyrrolidin-2-one]",6.95
7,"Cc1ccc2ncccc2c1-c1cc(-c2c(C)noc2C)cc2[nH]c(C(F)(F)F)nc12 [Compound 1020-92, 3,5-Dimethyl-4-(4-(6-methylquinolin-5-yl)-2-(trifluoromethyl)-1H-benzo[d]imidazol-6-yl)isoxazole]",7.14
8,"CC/C=C(\CC)c1cc(-c2c(C)noc2C)cc2nc(C3CC3)[nH]c12 [Compound 1020-28, (E)-4-(2-Cyclopropyl-4-(hex-3-en-3-yl)-1H-benzo[d]imidazol-6-yl)-3,5-dimethylisoxazole]",7.29
9,"CCC(CC)c1cc(-c2c(C)noc2C)cc2[nH]c(C3CC3)nc12 [Compound 1020-120, 4-(2-Cyclopropyl-4-(pentan-3-yl)-1H-benzo[d]imidazol-6-yl)-3,5-dimethylisoxazole]",7.31
10,"Cc1noc(C)c1-c1cc(N2C(=O)CCC2C)c2nc(C3CC3)[nH]c2c1 (stereo not drawn) [Compound 1020-136, 1-(2-Cyclopropyl-6-(3,5-dimethylisoxazol-4-yl)-1H-benzo[d]imidazol-4-yl)-5-methylpyrrolidin-2-one]",6.47
11,"Cc1ccnc(C)c1-c1cc(-c2c(C)noc2C)cc2nc(C3CC3)[nH]c12 [Compound 1020-57, 4-(2-Cyclopropyl-7-(2,4-dimethylpyridin-3-yl)-1H-benzo[d]imidazol-5-yl)-3,5-dimethylisoxazole]",7.87
12,"Cc1n[nH]c(C)c1-c1cc(-c2c(C)noc2C)cc2nc(C3CC3(F)F)[nH]c12 (stereo not drawn) [Compound 1020-78, 4-(2-(2,2-Difluorocyclopropyl)-7-(3,5-dimethyl-1H-pyrazol-4-yl)-1H-benzo[d]imidazol-5-yl)-3,5-dimethylisoxazole]",7.59
13,"Cc1nc2cc(-c3c(C)noc3C)cc(-c3c(C)n[nH]c3C)c2[nH]1 [Compound 1020-77, 4-(7-(3,5-Dimethyl-1H-pyrazol-4-yl)-2-methyl-1H-benzo[d]imidazol-5-yl)-3,5-dimethylisoxazole]",7.40
14,"Cc1noc(C)c1-c1cc(C(O)(c2ccccc2)c2ccccc2)c2nc(C3CC3)[nH]c2c1 [Compound 1020-102, (2-Cyclopropyl-6-(3,5-dimethylisoxazol-4-yl)-1H-benzo[d]imidazol-4-yl)diphenylmethanol]",7.30
15,"Cc1ccnc(C)c1-c1cc(-c2c(C)noc2C)cc2[nH]cnc12 [Compound 1020-84, 4-(4-(2,4-Dimethylpyridin-3-yl)-1H-benzo[d]imidazol-6-yl)-3,5-dimethylisoxazole]",6.63
16,"Cc1n[nH]c(C)c1-c1cc(-c2c(C)noc2C)cc2nc(N)[nH]c12 [Compound 1020-96, 4-(3,5-Dimethyl-1H-pyrazol-4-yl)-6-(3,5-dimethylisoxazol-4-yl)-1H-benzo[d]imidazol-2-amine]",6.50
17,"COc1nc2c(-c3c(C)ccc4ncccc34)cc(-c3c(C)noc3C)cc2[nH]1 [Compound 1020-90, 4-(2-methoxy-4-(6-methylquinolin-5-yl)-1H-benzo[d]imidazol-6-yl)-3,5-dimethylisoxazole]",7.60
18,"Cc1n[nH]c(C)c1-c1cc(-c2c(C)noc2C)cc2[nH]c(NC3CC3)nc12 [Compound 1020-81, N-Cyclopropyl-4-(3,5-dimethyl-1H-pyrazol-4-yl)-6-(3,5-dimethylisoxazol-4-yl)-1H-benzo[d]imidazol-2-amine]",8.12
19,"Cc1noc(C)c1-c1cc(S(=O)(=O)NC2CCCC2)c2nc(Cc3ccccc3)[nH]c2c1 [Compound 1020-141, 2-Benzyl-N-cyclopentyl-6-(3,5-dimethylisoxazol-4-yl)-1H-benzo[d]imidazole-4-sulfonamide]",6.05
20,"Cc1noc(C)c1-c1cc(S(=O)(=O)NC2CCCC2)c2nc(NCC3CC3)[nH]c2c1 [Compound 1020-1, N-Cyclopentyl-2-(cyclopropylmethylamino)-6-(3,5-dimethylisoxazol-4-yl)-1H-benzo[d]imidazole-4-sulfonamide]",6.71
21,"Cc1noc(C)c1-c1cc(/C=C/c2ccccc2)c2[nH]c(C3CC3)nc2c1 [Compound 1020-37, (E)-4-(2-cyclopropyl-4-styryl-1H-benzo[d]imidazol-6-yl)-3,5-dimethylisoxazole]",6.29
22,"CSc1nc2c(S(=O)(=O)NC3CCCC3)cc(-c3c(C)noc3C)cc2[nH]1 [Compound 1020-4, N-Cyclopentyl-6-(3,5-dimethylisoxazol-4-yl)-2-(methylthio)-1H-benzo[d]imidazole-4-sulfonamide]",6.72
23,"Cc1n[nH]c(C)c1-c1cc(-c2c(C)noc2C)cc2[nH]c(NCC3CC3)nc12 [Compound 1020-79, N-(Cyclopropylmethyl)-4-(3,5-dimethyl-1H-pyrazol-4-yl)-6-(3,5-dimethylisoxazol-4-yl)-1H-benzo[d]imidazol-2-amine]",7.47
24,Cc1noc(C)c1-c1cc(S(=O)(=O)NC2CCCC2)c2nc(NCC(F)(F)F)[nH]c2c1 [Compound 1020-148],6.31
25,"Cc1noc(C)c1-c1cc(-c2cccnc2-c2ccccc2)c2nc(C3CC3)[nH]c2c1 [Compound 1020-19, 4-(2-Cyclopropyl-4-(2-phenylpyridin-3-yl)-1H-benzo[d]imidazol-6-yl)-3,5-dimethylisoxazole]",7.61

# Same assay, conditions: Table 1; 5 days, Cell Titer Glo; method text calls it EC50; read-out: MT4 Assay, (IC50)
row,Structure (SMILES),pIC50
1,"Cc1n[nH]c(C)c1-c1cc(-c2c(C)noc2C)cc2[nH]c(C3CCC3)nc12 [Compound 1020-75, 4-(2-Cyclobutyl-4-(3,5-dimethyl-1H-pyrazol-4-yl)-1H-benzo[d]imidazol-6-yl)-3,5-dimethylisoxazole]",7.74
